# Assay results reported in US20230322769A1, “HETEROAROMATIC RING COMPOUND AS RET KINASE INHIBITOR, AND PREPARATION AND USE THEREOF” (JIANGSU CHIA TAI FENGHAI PHARMACEUTICAL CO., LTD., priority 2020, published 2023).
# Experiments:
# [1] = molecular target: RET wild type (RET WT) (Homo sapiens (Human), UniProt P07949); experiment: HTRF kinase activity assay, RET wild type; format: biochemical; conditions: 1 μM ATP
# [2] = molecular target: KDR (VEGFR2) (Homo sapiens (Human), UniProt P35968); experiment: HTRF kinase activity assay, KDR; format: biochemical; conditions: 20 μM ATP
# [3] = Pharmacokinetic assay in rats; format: in vivo, rat; conditions: for CL / Vz / F / AUC(0-inf) / AUC(0-t) / Cmax / Tmax / clearance / half-life / Vd: SD male rats; for F: p.o. 5 mg/kg vs i.v. 1 mg/kg; for AUC(0-inf) / AUC(0-t) / Cmax / Tmax / clearance / half-life / Vd: rat, plasma; for Vd: read-out: Vz
# [4] = test system: BA/F3 KIF5B-RET graft tumor; experiment: Mouse subcutaneous BA/F3 KIF5B-RET graft tumor model; format: in vivo
# [5] = molecular target: FGFR2 (Homo sapiens (Human), UniProt P21802); experiment: HTRF kinase activity assay, FGFR2; format: biochemical
# Description: Activity Experiment 8: Inhibition of FGFR Family Kinases' Activity by Prepared Compounds The compounds were assayed for activity IC50 against the FGFR family kinases. Related kinases were purchased from Carna and Signalchem. The activity assay method for the related kinases was established by homogeneous time-resolved fluorescence (HTRF), and the inhibitory activity of the compounds was determined. […] The kinases and compounds were pre-incubated for 10 min, and then ATP and substrate were added to start the reaction. All the enzyme-catalyzed reactions were carried out at 25° C. for 40 min. After the enzyme-catalyzed reactions were completed, 5 μL of TK antibody-cryptate and streptavidin-XL665 (the reaction concentration of streptavidin-XL665 was 62.5 nM) were added to the reaction mixtures, and the mixtures were incubated at 25° C. for another 60 min.
# [6] = molecular target: hERG potassium channel (Homo sapiens (Human), UniProt Q12809); experiment: Inhibition of hERG potassium channel, whole-cell patch clamp in HEK293 cells; conditions: read-out: IC50 for inhibition of hERG potassium channel; HEK293 cells stably expressing hERG, patch clamp
# [7] = 30 mg/kg b.i.d. intragastric, Day 11
# [8] = 30 mg/kg b.i.d. intragastric, Day 15
# Chain of FGFR2 (P21802 22-821): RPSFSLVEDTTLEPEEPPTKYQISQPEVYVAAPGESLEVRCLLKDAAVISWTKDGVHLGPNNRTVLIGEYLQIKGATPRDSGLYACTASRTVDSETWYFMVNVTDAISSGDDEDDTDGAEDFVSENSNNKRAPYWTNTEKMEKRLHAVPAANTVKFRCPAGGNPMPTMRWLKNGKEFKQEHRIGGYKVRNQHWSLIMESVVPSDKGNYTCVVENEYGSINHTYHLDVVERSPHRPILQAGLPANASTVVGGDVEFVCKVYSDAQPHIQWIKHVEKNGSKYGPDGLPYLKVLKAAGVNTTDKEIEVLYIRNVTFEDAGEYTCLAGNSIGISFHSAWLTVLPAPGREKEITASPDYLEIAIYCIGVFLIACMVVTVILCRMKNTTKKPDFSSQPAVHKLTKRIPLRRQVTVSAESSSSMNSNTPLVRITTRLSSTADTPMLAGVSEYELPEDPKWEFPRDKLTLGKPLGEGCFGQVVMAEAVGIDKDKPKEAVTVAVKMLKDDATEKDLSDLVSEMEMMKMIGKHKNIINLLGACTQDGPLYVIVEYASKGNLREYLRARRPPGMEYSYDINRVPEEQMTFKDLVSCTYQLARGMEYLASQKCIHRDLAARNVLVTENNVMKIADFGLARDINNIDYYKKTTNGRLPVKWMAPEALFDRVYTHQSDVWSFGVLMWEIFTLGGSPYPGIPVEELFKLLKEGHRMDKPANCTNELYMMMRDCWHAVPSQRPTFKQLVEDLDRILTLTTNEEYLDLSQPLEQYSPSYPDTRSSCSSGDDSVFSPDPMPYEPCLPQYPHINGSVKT
# Chain of RET wild type (RET WT) (P07949 29-1114): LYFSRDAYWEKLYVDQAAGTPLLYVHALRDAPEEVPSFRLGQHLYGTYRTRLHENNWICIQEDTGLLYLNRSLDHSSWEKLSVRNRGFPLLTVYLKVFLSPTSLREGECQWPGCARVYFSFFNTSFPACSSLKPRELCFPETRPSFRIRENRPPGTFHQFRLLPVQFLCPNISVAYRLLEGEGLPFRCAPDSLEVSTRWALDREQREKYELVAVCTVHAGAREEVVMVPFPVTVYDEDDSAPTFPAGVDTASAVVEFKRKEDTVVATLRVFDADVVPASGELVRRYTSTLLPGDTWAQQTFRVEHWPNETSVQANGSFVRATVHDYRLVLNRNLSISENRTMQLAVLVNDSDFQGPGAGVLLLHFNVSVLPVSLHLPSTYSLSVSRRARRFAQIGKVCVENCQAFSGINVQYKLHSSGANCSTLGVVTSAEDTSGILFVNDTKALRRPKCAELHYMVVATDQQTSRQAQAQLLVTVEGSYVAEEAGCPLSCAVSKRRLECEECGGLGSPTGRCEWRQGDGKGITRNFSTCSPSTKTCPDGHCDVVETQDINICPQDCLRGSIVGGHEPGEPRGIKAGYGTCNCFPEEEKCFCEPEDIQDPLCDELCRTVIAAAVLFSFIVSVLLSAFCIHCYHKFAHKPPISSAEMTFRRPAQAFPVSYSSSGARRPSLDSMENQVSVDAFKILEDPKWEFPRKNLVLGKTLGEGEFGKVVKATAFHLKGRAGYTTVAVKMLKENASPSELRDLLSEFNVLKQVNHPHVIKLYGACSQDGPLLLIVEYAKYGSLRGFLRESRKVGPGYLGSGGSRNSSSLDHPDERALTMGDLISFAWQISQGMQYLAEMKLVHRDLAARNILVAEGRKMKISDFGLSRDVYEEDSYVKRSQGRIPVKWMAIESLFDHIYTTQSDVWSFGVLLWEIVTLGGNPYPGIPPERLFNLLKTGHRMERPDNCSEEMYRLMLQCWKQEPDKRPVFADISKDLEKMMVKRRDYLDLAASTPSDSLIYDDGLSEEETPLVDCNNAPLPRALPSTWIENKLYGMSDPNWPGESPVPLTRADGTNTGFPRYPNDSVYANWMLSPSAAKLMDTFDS
# Chain of KDR (VEGFR2) (P35968 20-1356): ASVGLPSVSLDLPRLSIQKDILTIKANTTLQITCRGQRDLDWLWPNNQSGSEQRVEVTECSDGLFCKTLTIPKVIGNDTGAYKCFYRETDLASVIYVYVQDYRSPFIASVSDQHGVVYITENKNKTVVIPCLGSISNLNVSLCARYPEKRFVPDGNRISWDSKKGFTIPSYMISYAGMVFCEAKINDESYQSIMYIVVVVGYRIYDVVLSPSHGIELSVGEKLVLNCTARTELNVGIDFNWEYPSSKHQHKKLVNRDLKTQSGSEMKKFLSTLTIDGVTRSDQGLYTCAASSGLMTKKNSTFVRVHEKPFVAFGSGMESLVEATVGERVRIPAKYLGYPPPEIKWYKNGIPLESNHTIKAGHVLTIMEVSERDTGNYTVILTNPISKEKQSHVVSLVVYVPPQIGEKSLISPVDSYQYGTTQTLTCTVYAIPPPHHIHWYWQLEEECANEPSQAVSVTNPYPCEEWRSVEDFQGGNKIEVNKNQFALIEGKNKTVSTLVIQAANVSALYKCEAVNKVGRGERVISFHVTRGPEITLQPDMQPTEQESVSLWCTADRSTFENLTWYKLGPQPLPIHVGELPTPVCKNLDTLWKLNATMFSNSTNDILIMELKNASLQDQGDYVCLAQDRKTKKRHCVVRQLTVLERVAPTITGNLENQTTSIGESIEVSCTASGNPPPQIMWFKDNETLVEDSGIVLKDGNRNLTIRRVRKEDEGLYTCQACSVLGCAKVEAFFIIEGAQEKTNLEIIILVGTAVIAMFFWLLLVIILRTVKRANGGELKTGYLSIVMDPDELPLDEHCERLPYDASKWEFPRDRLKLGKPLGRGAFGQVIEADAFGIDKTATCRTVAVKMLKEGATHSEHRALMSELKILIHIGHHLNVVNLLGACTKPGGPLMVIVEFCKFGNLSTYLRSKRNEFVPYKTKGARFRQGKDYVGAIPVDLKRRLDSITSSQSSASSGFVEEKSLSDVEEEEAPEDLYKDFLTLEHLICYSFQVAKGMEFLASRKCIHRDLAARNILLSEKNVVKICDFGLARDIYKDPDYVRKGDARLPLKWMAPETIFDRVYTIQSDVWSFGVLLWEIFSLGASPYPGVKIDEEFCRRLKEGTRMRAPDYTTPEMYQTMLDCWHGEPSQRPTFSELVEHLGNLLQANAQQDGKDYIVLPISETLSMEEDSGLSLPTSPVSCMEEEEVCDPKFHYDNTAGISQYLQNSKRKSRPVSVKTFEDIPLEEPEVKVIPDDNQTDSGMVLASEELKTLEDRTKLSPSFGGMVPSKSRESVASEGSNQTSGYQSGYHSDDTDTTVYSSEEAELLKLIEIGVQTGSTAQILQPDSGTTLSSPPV
# Chain of hERG potassium channel (Q12809 whole entry): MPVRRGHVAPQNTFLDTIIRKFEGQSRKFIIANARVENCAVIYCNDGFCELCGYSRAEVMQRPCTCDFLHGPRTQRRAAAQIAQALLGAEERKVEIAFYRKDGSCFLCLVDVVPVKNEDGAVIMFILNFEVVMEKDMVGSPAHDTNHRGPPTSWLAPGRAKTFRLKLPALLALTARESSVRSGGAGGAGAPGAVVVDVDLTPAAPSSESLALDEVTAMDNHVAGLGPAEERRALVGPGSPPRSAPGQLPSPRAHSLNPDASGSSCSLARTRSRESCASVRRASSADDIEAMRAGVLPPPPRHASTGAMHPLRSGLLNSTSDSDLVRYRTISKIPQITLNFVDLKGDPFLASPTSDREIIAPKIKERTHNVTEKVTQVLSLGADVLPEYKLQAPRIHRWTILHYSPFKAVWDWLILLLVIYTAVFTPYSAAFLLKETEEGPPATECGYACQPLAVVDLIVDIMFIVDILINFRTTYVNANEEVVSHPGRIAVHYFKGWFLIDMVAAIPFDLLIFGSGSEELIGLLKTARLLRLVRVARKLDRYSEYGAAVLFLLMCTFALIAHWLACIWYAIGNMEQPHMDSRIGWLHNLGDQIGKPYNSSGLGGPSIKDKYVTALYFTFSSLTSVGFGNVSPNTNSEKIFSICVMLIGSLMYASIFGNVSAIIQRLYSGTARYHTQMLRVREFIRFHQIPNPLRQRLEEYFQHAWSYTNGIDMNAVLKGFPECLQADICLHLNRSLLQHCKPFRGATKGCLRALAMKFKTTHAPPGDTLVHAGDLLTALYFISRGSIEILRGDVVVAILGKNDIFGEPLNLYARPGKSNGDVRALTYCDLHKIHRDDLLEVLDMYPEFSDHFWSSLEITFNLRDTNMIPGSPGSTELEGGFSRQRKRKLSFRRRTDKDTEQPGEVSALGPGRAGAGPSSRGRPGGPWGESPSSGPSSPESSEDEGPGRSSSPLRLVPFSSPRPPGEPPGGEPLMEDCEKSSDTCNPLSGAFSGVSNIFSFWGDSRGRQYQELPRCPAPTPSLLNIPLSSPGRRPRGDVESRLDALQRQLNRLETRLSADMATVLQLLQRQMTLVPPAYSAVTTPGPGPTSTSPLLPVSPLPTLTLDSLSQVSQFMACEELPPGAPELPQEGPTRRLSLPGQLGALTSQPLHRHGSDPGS
Compound,CL ([3]; p.o. 5 mg/kg) [mL/min/kg],Vz ([3]; p.o. 5 mg/kg) [L/kg],F [3] [%],"AUC(0-inf) ([3]; iv, i.v. 1 mg/kg) [ng·h/mL]","AUC(0-t) ([3]; iv, i.v. 1 mg/kg) [ng·h/mL]","Cmax ([3]; iv, i.v. 1 mg/kg) [ng/mL]","Tmax ([3]; iv, i.v. 1 mg/kg) [h]","clearance ([3]; iv, i.v. 1 mg/kg) [mL/min/kg]","Vd ([3]; iv, i.v. 1 mg/kg) [L/kg]","AUC(0-inf) ([3]; po, p.o. 5 mg/kg) [ng·h/mL]","AUC(0-t) ([3]; po, p.o. 5 mg/kg) [ng·h/mL]","Cmax ([3]; po, p.o. 5 mg/kg) [ng/mL]","Tmax ([3]; po, p.o. 5 mg/kg) [h]","half-life ([3]; po, p.o. 5 mg/kg) [h]","Volume of graft tumor (mean ± SD) [4, 7] [mm^3]","Volume of graft tumor (mean ± SD) [4, 8] [mm^3]",IC50 [5] [nM],other results
[2H]C([2H])([2H])N1CCN(c2cc(-c3ccc(N4CC5CC(C4)N5Cc4ccc(OC)nc4)nc3)c3c(C#N)cnn3c2)CC1 [Compound 94],59.4597,68.49214,98.02,335,240,42.3,0.08,51.2,57.6,1640,1020,63.9,4,15.8,12.19 ± 27.25,8.00 ± 17.89,26.5,"IC50 [1]: 4.62 nM; IC50 [2]: 169 nM; Clearance time in rats compared with Loxo-292 ([3]; after oral administration): took longer to be cleared; Bioavailability compared with Loxo-292 ([3]; after oral administration, rats): higher bioavailability; half-life ([3]; iv, i.v. 1 mg/kg): 13.3 h; Volume of graft tumor (mean ± SD) ([4]; 30 mg/kg b.i.d. intragastric, Day 0): 96.85 ± 2.24 mm^3; Volume of graft tumor (mean ± SD) ([4]; 30 mg/kg q.d. intragastric, Day 0): 96.95 ± 1.48 mm^3; Volume of graft tumor (mean ± SD) ([4]; 30 mg/kg q.d. intragastric, Day 11): 14.57 ± 23.42 mm^3; Volume of graft tumor (mean ± SD) ([4]; 30 mg/kg q.d. intragastric, Day 15): 9.73 ± 16.31 mm^3; Volume of graft tumor (mean ± SD) ([4]; 60 mg/kg q.d. intragastric, Day 0): 96.76 ± 2.34 mm^3; Volume of graft tumor (mean ± SD) ([4]; 60 mg/kg q.d. intragastric, Day 11): 6.11 ± 14.98 mm^3; Volume of graft tumor (mean ± SD) ([4]; 60 mg/kg q.d. intragastric, Day 15): 3.75 ± 9.19 mm^3"
"COc1ccc(CN2C3CC2CN(c2ccc(-c4cc(OCC(C)(C)O)cn5ncc(C#N)c45)cn2)C3)cn1 [Selpercatinib, selpercatinib, reference compound]",7.6,2.039,66.07,3330,3310,1260,0.083,5.1,1.61,11000,10900,1040,2.67,3.11,19.68 ± 17.97,13.59 ± 12.43,20.6,IC50 [6]: 2750 nM
